Literature values, collected in US20160331796A1, “ENRICHED AMARANTHUS BLITOIDES COMPOSITIONS AND USES THEREOF” (priority 2010, published 2016).

System: prostate cancer cell lines, and primary prostate tumor lines

For Vitamin D, the “effect on invasion of prostate cancer cells” value (in vitro) is given as “decrease invasion”, the “expression of α6 and β4 integrins” value (integrins associated with increased migration and invasion of prostate cancer cells in vitro) is given as “decreased expression” and the “effect on proliferation and differentiation of tumor cell types” value (several tumor cell types, including prostate cancer cell lines and primary prostate tumor lines) is given as “inhibit proliferation and promote differentiation”.
